Patent EP4818177A1, “TRICYCLIC DERIVATIVE INHIBITOR, AND PREPARATION METHOD AND USE THEREFOR” (Shanghai Hansoh Biomedical Co., Ltd., priority 2023, dated 2025)

Key:
[1] = target: T1, PRMT5/MEP50-MTA protein complex (Homo sapiens, UniProt O14744); test: Thermal shift assay: change in melting temperature of the PRMT5/MEP50-MTA protein complex; assay type: binding; settings: compound 8 µM, PRMT5/MEP50 2 µM, MTA 2 µM; Tm minus DMSO vehicle control
T1 construct: purchased Viva Biotech
From the text: Test Example 1: Determination of the ability of the compounds of the present invention to improve the thermal stability (melting temperature) of the PRMT5/MEP50-MTA protein complex.
1. Experimental objective: The objective of this test example is to determine the ability of the compound to improve the thermal stability of the PRMT5/MEP50-MTA protein complex, resulting in an increase in the protein melting temperature. 2. Experimental instruments: Quantitative PCR instrument (Quantstudio6 Flex) was purchased from Life Technologies; pipettes were purchased from Eppendorf or Rainin. 3. Experimental reagents and consumables: PRMT5/MEP50 protein was prepared by Viva Biotech; HEPES was purchased from Thermo Fisher Scientific (Cat. No. 15630080); DTT was purchased from Sigma (Cat. No. 43816-10ml); sodium chloride was purchased from Invitrogen (Cat. No. AM9760G); Protein Thermal Shift™ Dye Kit was purchased from Thermo Fisher Scientific (Cat. No. 4461146); methylthioadenosine (MTA) was purchased from Sigma (Cat. No. D5011). 4. Experimental methods: In this experiment, the thermal shift method was used to measure the change in the melting temperature (Tm) of the PRMT5/MEP50-MTA protein complex before and after compound binding, thereby characterising the ability of the compound to improve the thermal stability of the PRMT5/MEP50-MTA protein complex. A solution containing 50 mM HEPES, 10 mM DTT, 2 µM MTA, SYPRO Orange and 250 mM NaCl was prepared as the experimental buffer. Human PRMT5/MEP50 protein was added to a final concentration of 2 µM, and the mixture was incubated at room temperature for 30 minutes. The above reaction mixture was aliquoted into 8-strip PCR tubes at 19.5 µL per tube. Then 0.5 µL of test compound or DMSO was added to each tube, providing a total reaction volume of 20 µL and a final compound concentration of 8 µM. 2.5% DMSO was set as the vehicle control. After incubation at room temperature for 10 minutes, the PCR tubes were placed in a PCR instrument, and the melt curve function was selected to measure the melting temperature of the PRMT5/MEP50-MTA protein complex in different treatment groups (heated from 25°C to 95°C, 0.03°C/s). 5. Experimental data processing method: The experimental data files from the PCR instrument were imported into the thermal shift software to obtain the melting temperature (Tm) for each treatment group.

[2] = test system: MTAP Knockout HCT116 cells; test: Cell proliferation inhibition (CellTiter-Glo), MTAP knockout cells; assay type: cell-based; settings: for Selectivity: HCT116 versus MTAP Knockout HCT116; for IC50: Homo sapiens, HCT-116, MTAP Knockout HCT116 cells, 72-240 hours incubation, CellTiter-Glo
From the text: (§1) Test Example 2: Determination of the inhibitory effect of the compounds of the present invention on the proliferation activity of HCT116 and MTAP Knockout HCT116 cells.
(§2) 1. Experimental objective: to determine the inhibitory effect of the compound on the proliferation activity of HCT116 wild-type and HCT116 MTAP knockout cells. 2. Experimental instruments: Centrifuge (Eppendorf 5810R); microplate reader (BioTek Synergy H1 or PerkinElmer Envision); pipette (Eppendorf or Rainin). 3. Experimental reagents: HCT116 and MTAP Knockout HCT116 cells were purchased from Nanjing Cobioer; Cell Titer-Glo was purchased from Promega (Cat. No. G7573); McCoy' 5A was purchased from Gibco (Cat. No. 12330031); FBS was purchased from Gibco (Cat. No. 10091148); PBS was purchased from Gibco (Cat. No. 10010023); trypsin was purchased from Gibco (Cat. No. 25200056); cell culture plates were purchased from Corning (Cat. No. 3610). 4. Experimental methods: HCT116 and MTAP Knockout HCT116 cells were cultured in McCoy'5A medium containing 10% FBS until an appropriate cell density was reached. The cells were then collected and adjusted to a suitable concentration using complete medium. The cell suspension was seeded into a 96-well plate at 90 µL per well and allowed to adhere overnight in a 37°C, 5% CO2 incubator. Compound solutions of various concentrations were prepared using DMSO and culture medium, with a vehicle control set. The compound solutions were added to the 96-well plate at 10 µL per well, and the plate was incubated in a 37°C, 5% CO2 incubator for an additional 72-240 hours. After incubation, CellTiter-Glo solution was added, and the mixture was mixed uniformly by shaking, followed by incubation in the dark for 10 to 30 minutes. Luminescence was measured using a Synergy H1 or Envision microplate reader. 5. Experimental data processing method: The inhibition rate was calculated using the luminescence signal values, and the concentrations along with the inhibition rates were subjected to non-linear regression curve fitting using Graphpad Prism software to obtain the IC50 values.

HCT116 wild-type cells = test: Cell proliferation inhibition (CellTiter-Glo), wild-type cells; assay type: cell-based; settings: Homo sapiens, HCT-116, HCT116 wild-type cells, 72-240 hours incubation
From the text: as §1, §2

[3] = Pharmacokinetics in rats (plasma) after oral administration; settings: male, SD, rat, 5 mg/kg
Method: Test Example 4: Determination of the pharmacokinetics of the compounds of the present invention in rats (plasma) after oral administration.
Study objective: SD rats were used as test animals to study the pharmacokinetic behaviour of the following example compounds in rats (plasma) after oral administration at a dose of 5 mg/kg. […] Test scheme 2.1 Test drugs: Vehicle formula: 0.5% CMC-Na (1% Tween 80); the examples of the present invention, prepared in house. 2.2 Test animals: 3 SD rats per group, male, purchased from Shanghai Bikai Keyi Biotechnology Co., Ltd., with animal license number (SCXK (Shanghai) 2018-0006, No.20180006037467). 2.3 Administration: 3 SD rats per group, male, were fasted overnight and then respectively administered PO at a dose of 5 mg/kg and a volume of 10 mL/kg. 2.4 Sample collection: 0.2 mL of blood was collected from the jugular vein of rats before administration and at 0, 0.25, 0.5, 1, 2, 4, 6, 8 and 24 h after administration, and placed in EDTA-K2test tubes, and the test tubes were centrifuged at 6,000 rpm at 4°C for 6 min to separate the plasma, which was stored at -80°C. The animals were fed 4 h after administration. 2.5 Sample treatment • 1) 160 uL of acetonitrile was added to 40 uL of plasma sample for precipitation, and after mixing, the mixture was centrifuged at 3,500 × g for 5-20 minutes. • 2) 100 uL of the treated supernatant solution was taken for LC/MS/MS analysis to determine the concentration of the test compounds. 2.6 Liquid phase analysis • Liquid phase conditions: Shimadzu LC-20AD pump; • Mass spectrometry conditions: AB Sciex API 4000 mass spectrometer; • Chromatographic column: phenomenex Gemiu 5 um C18 50 × 4.6 mm; • Mobile phase: solution A: 0.1% formic acid in water, solution B: methanol; • flow rate: 1.0 mL/min; Elution time: 0-4.0 min, with eluents as follows:
Experimental results and analysis: The main pharmacokinetic parameters were calculated using WinNonlin 8.2.

T1 sequence (O14744 whole entry): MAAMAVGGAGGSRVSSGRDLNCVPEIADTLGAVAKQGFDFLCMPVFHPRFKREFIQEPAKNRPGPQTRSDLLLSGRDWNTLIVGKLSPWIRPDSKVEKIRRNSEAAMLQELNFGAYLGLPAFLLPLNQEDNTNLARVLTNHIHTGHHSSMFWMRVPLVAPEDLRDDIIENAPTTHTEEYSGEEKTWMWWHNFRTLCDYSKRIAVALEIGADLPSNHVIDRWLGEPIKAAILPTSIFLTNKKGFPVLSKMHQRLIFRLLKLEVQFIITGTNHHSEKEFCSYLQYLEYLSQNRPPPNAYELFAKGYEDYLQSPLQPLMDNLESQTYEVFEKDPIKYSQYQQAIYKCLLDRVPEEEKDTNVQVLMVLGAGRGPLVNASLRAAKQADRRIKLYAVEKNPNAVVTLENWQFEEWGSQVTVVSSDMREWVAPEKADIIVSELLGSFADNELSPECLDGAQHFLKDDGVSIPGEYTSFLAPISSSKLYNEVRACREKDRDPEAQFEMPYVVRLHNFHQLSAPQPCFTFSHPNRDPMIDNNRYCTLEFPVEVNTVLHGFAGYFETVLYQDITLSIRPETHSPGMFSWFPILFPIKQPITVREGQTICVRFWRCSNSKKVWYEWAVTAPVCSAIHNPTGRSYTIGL
T1 sequence (Q9BQA1 whole entry partner): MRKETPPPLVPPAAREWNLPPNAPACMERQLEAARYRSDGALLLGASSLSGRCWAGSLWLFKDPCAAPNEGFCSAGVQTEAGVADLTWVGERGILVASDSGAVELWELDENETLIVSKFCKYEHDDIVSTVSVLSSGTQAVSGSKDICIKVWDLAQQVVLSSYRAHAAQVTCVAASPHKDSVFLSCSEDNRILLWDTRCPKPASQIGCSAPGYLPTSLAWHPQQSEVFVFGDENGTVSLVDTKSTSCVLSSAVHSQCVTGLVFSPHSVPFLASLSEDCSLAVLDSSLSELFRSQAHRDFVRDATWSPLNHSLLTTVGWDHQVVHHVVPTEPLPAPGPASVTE

Row | SMILES | ΔTm at 8 µM [1] [°C] | Selectivity [2] | IC50 [2] [nM] | IC50 (HCT116 wild-type cells) [nM] | other results
1 | CNN(C(=O)c1ccc2nc(N)c3cnn(C)c3c2c1)C1COCc2nc(C(F)(F)F)ccc21 (racemic) [Example 301, 4-Amino-N',1-dimethyl-N-[2-(trifluoromethyl)-6,8-dihydro-5H-pyrano[3,4-b]pyridin-5-yl]pyrazolo[4,3-c]quinoline-8-hydrazide] | 11.6 | 94 | 14 | 1360 | 
2 | CN(C(=O)c1ccc2nc(N)c3cnn(C)c3c2c1)C1COCc2c1ccn1cc(Br)nc21 (stereo not shown) [Example 37, 4-Amino-N-(2-bromo-7,10-dihydro-8H-imidazo[1,2-a]pyrano[3,4-c]pyridin-7-yl)-N,1-dimethyl-1H-pyrazolo [4,3-c] quinoline-8-carboxamide] | 11.3 | 166 | 9.2 | 1520 | 
3 | Cc1cc2nc(N)c3cncn3c2cc1C(=O)N(C)[C@@H]1COCc2c1ccn1cc(C(F)(F)F)nc21 [Example 39-P1, (S)-4-amino-N,7-dimethyl-N-(2-(trifluoromethyl)-7,10-dihydro-8H-imidazo[1,2-a]pyrano[3,4-c]pyridin-7-yl)imidazo[1,5-a]quinoxaline-8-carboxamide] | 12.4 | 108 | 13 | 1390 | 
4 | Cc1cc2nc(N)c3cncn3c2cc1C(=O)N(C)C1COCc2c1ccn1c(C(F)(F)F)cnc21 (stereo not shown) [Example 62, 4-Amino-N,7-dimethyl-N-(3-(trifluoromethyl)-7,10-dihydro-8H-imidazo[1,2-a]pyrano[3,4-c]pyridin-7-yl)imidazo[1,5-a]quinoxaline-8-carboxamide] | 12.5 | 113 | 7.2 | 808 | 
5 | Cc1cc2nc(N)c3cncn3c2cc1C(=O)N(C)[C@@H]1COCc2c1ccn1c(C(F)(F)F)cnc21 [Example 62-P1, (S)-4-amino-N,7-dimethyl-N-(3-(trifluoromethyl)-7,10-dihydro-8H-imidazo[1,2-a]pyrano[3,4-c]pyridin-7-yl)imidazo[1,5-a]quinoxaline-8-carboxamide] | 12.5 |  |  |  | AUC(0-inf) [3]: 1360 ng·h/mL; Cmax [3]: 441 ng/mL; MRT inf [3]: 4 h; Tmax [3]: 0.5 h; half-life [3]: 4.1 h
6 | CN(C(=O)c1ccc2nc(N)c3cnn(C)c3c2c1)C1COCc2c1ccn1c(C(F)(F)F)cnc21 (stereo not shown) [Example 83, 4-Amino-N,1-dimethyl-N-(3-(trifluoromethyl)-7,10-dihydro-8H-imidazo[1,2-a]pyrano[3,4-c]pyridin-7-yl)-1H-pyrazolo[4,3-c]quinoline-8-carboxamide] | 11.8 | 164 | 4.8 | 790 | 
7 | CNN(C(=O)c1cc2c(cc1F)nc(N)c1cncn12)C1COCc2nc(C(F)(F)F)ccc21 (stereo not shown) [Example 279, 4-Amino-7-fluoro-N'-methyl-N-[2-(trifluoromethyl)-6,8-dihydro-5H-pyrano[3,4-b]pyridin-5-yl]imidazo[1,5-a]quinoxaline-8-hydrazide] | 12.2 |  |  |  | AUC(0-inf) [3]: 729 ng·h/mL; Cmax [3]: 233 ng/mL; MRT inf [3]: 2.1 h; Tmax [3]: 0.5 h; half-life [3]: 1 h
8 | [2H]C([2H])([2H])NN(C(=O)c1cc2c3c(c(N)nc2cc1F)COC3)C1COCc2c1ccn1c(C(F)(F)F)cnc21 (stereo not shown) [Example 351, 4-Amino-7-fluoro-N'-(trideuteriomethyl)-N-(3-trifluoromethyl-7,10-dihydro-8H-imidazo [1,2-a]pyrano [3,4-c]pyridin-7-yl)-1,3-dihydrofuro [3,4-c] quinoline-8-carbohydrazide] | 12.6 |  |  |  | AUC(0-inf) [3]: 9660 ng·h/mL; Cmax [3]: 2330 ng/mL; MRT inf [3]: 3.3 h; Tmax [3]: 0.5 h; half-life [3]: 2.3 h
9 | CNN(C(=O)c1cc2c3c(c(N)nc2cn1)COC3)C1COc2cc(S(F)(F)(F)(F)F)ccc21 [Example 372, rel-(R)-4-amino-N'-methyl-N-(6-(pentafluoro-6-sulphanyl)-2,3-dihydrobenzofuran-3-yl)-1,3-dihydrofuro[3,4-c][1,7]naphthyridine-8-carbohydrazide] | 11.2 |  |  |  | 
10 | CNN(C(=O)c1cc2c(cn1)nc(N)c1cnn(C)c12)C1COc2cc(S(F)(F)(F)(F)F)ccc21 (stereo not shown) [Example 375, 4-Amino-N',1-dimethyl-N-(6-(pentafluoro-6-sulphanyl)-2,3-dihydrobenzofuran-3-yl)-1H-pyrazolo[4,3-c][1,7]naphthyridine-8-carbohydrazide] | 12.7 |  |  |  | 
11 | CNN(C(=O)c1cc2c(cn1)nc(N)c1cncn12)C1COCc2nc(S(F)(F)(F)(F)F)ccc21 (stereo not shown) [Example 387, 4-Amino-N'-methyl-N-(2-pentafluorosulphanyl-5,8-dihydro-6H-pyrano[3,4-b]pyridin-5-yl)imidazo[1,5-a]pyridone[3,4-e]pyrazoline-8-hydrazide] | 12.6 |  |  |  | 
12 | [2H]C([2H])([2H])NN(C(=O)c1ccc2nc(N)c3c(c2c1)COC3)C1COCc2c1ccn1c(C(F)(F)F)cnc21 (stereo not shown) [Example 392, 4-Amino-N'-(trideuteriomethyl)-N-(3-trifluoromethyl-7,10-dihydro-8H-imidazo [1,2-a]pyrano [3,4-c]pyridin-7-yl)-1,3-dihydrofuro [3,4-c] quinoline-8-carbohydrazide] | 10.4 |  |  |  | 
13 | [2H]C([2H])([2H])NN(C(=O)c1cc2c3c(c(N)nc2cc1Cl)COC3)C1COCc2c1ccn1c(C(F)(F)F)cnc21 (stereo not shown) [Example 394, 4-Amino-7-chloro-N'-(methyl-d3)-N-(3-(trifluoromethyl)-7,10-dihydro-8H-imidazo [1,2-a]pyrano [3,4-c]pyridin-7-yl)-1,3-dihydrofuro [3,4-c] quinoline-8-carbohydrazide] | 13.2 |  |  |  | 
14 | [2H]C([2H])([2H])NN(C(=O)c1cc2c(cc1Cl)nc(N)c1cnn(C)c12)C1COCc2c1ccn1c(C(F)(F)F)cnc21 (stereo not shown) [Example 435, 4-Amino-7-chloro-1-methyl-N'-(methyl-d3)-N-(3-(trifluoromethyl)-7,10-dihydro-8H-imidazo[1,2-a]pyrano[3,4-c]pyridin-7-yl)-1H-pyrazolo[4,3-c] quinoline-8-carbohydrazide] | 13.7 |  |  |  | 
15 | [2H]C([2H])([2H])NN(C(=O)c1ccc2nc(N)c3cnn(C)c3c2c1)[C@@H]1COCc2c1ccn1c(C(F)(F)F)cnc21 [Example 436-P1] | 11.9 |  |  |  | 
16 | CNN(C(=O)c1cc2c3c(c(N)nc2cn1)N=NC3C)C1COCc2c1ccn1c(C(F)(F)F)cnc21 (stereo not shown) [Example 444, 4-Amino-N',1-dimethyl-N-(3-(trifluoromethyl)-7,10-dihydro-8H-imidazo[1,2-a]pyrano[3,4-c]pyridin-7-yl)-1H-pyrazolo[3,4-c][1,7]naphthyridine-8-carbohydrazide] | 12.7 |  |  |  | 
